For one assay, the system named is GNMT knockout mice. As to the kind of experiment: Prepulse inhibition (PPI) of acoustic startle reflex in drug-treated GNMT knockout mice. In kind it is in vivo, mouse. The procedure: The apparatus consisted of two startle chambers (Med Associates, Georgia, Vt.). One mouse selected from the WT control group and the other selected from GNMT deficient group were tested simultaneously. Each mouse was put into the PPI chamber for a 5-min acclimatization period with a […] background noise. Following this period, 10 startle pulses (120 dB, 40 ms duration) were presented with an average inter-trial interval of 15 s. Then, no stimulus (background noise, 68 dB), prepulses alone (72, 76 and 84 dB, 20 ms duration), startle pulses alone, and prepulses followed 80 ms later by startle pulses were presented six times randomly distributed over the next 20 min. […]
In view of the observed deficits in prepulse inhibition (PPI) of the acoustic startle reflex in GNMT knockout mice, we administered clozapine (a […] anti-schizophrenic drug, 1 mg/kg) to the GNMT knockout mice, and evaluated the therapeutic effects on schizophrenia. […]
Another hypothesis of schizophrenia pathology is that neuropsychiatric disorder may be associated with the dysfunction of N-methyl-D-aspartate (NMDA) receptor, a glutamate receptor. […] Therefore, in a further experiment, sarcosine (100 mg/kg) is administered to the GNMT knockout mice, and evaluated its therapeutic effects on schizophrenia.

The target of a further assay is T1, glycine transporter-1 (Homo sapiens, UniProt P48067).
T1 construct: host or cells: human patients (endogenous transporter)
T1 sequence (P48067 1-706): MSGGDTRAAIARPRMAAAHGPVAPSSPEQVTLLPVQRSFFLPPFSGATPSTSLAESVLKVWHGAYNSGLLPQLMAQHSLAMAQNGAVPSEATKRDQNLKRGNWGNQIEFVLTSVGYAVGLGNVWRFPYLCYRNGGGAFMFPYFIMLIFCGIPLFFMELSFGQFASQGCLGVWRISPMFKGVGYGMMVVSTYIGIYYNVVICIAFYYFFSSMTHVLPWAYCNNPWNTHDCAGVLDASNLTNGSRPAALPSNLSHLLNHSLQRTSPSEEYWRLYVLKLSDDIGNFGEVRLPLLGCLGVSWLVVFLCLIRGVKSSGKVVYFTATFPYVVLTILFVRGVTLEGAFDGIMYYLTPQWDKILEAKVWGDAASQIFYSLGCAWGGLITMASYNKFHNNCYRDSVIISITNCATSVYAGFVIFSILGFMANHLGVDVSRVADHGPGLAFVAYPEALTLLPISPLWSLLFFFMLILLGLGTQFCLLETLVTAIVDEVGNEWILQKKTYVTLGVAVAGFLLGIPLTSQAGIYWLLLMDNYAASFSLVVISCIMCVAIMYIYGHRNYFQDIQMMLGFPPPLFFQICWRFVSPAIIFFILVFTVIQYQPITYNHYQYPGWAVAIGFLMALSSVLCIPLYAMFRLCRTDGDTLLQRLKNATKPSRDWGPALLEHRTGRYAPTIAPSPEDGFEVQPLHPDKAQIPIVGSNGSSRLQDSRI
The following applies: clinical studies, supplement of sarcosine; cited from earlier work.

For assay [1] the following is noted: phase II clinical trials; cited from earlier work.

Molecules are shown by their SMILES. “Also recorded” adds a separate entry of the source.

With `CNCC(=O)O` [sarcosine], in the assay with GNMT knockout mice (sarcosine 100 mg/kg (FIG. 10)), the “level of startle amplitude” value is reported as “unaffected”. Also, the “percent PPI of ASR” value in the assay on GNMT knockout mice (sarcosine 100 mg/kg, compared with solvent control (FIG. 11)) is “significantly induced PPI; also recorded: significantly ameliorated deficits in prepulse inhibition”. Further, the symptoms of schizophrenia result at glycine transporter-1 is on record as “can improve the symptoms of schizophrenia”. Further, the symptoms of depression result in assay [1] is “effective to ameliorate symptoms of depression”.

These data come from patent US8697939B2, “Mouse model for depression, schizophrenia and alzheimer's disease and the use thereof” (National Yang Ming University, priority 2009, dated 2014).
